Measurements taken from paper PMC11435156, “Exploring Quinazoline Nitro-Derivatives as Potential Antichagasic Agents: Synthesis and In Vitro Evaluation” (Molecules, 2024).
Where two headings read alike, the source gives them in different places. Marks after values point to notes of the source that are not given here.

Experiments:
[1] = tested on: T. cruzi Queretaro strain epimastigotes; assay: Growth of epimastigotes cultured in vitro (motile parasites counted, relative growth); assay type: cell-based, Trypanosoma cruzi; conditions: for S.I. LD50/ED50: HFF1 LD50 / epimastigote ED50; for IC50: Trypanosoma cruzi, read-out: Epi ED50; for antiparasitic effect, summary in words: epimastigotes and trypomastigotes, summary of Table 2; for Epi ED50 (initial screening): initial screening done in 5 mL culture
Protocol: Epimastigotes were grown at 28 °C.
Epimastigotes were grown in LIT medium at the exponential phase and aliquots of 1 × 10^5 parasites were dispensed in 200 µL/well in a 96-well culture plate (Corning; NY, USA). […] Control samples without the compounds were supplemented with the maximum amount of vehicle used. […] Afterwards, the number of mobile epimastigotes (motility as parameter of viability) was counted in a Neubauer chamber. Relative growth is the difference of the final density of parasites after 24 h of treatment with the compound minus the density of parasites at time 0 of exposure; these differences were further normalized to the relative growth of the culture without compound. Plots of the percentage of relative growth against compound concentration were built and data adjusted to dose–response equation with the Origin Pro software (Origin Pro version 8.0) to calculate the concentration at which the variable is decreased by 50%.

[2] = tested on: T. cruzi Queretaro strain trypomastigotes; assay: Viability of trypomastigotes (motility as parameter of viability); assay type: cell-based; conditions: Trypanosoma cruzi, read-out: Trypo LD50
Protocol: For the primary infection, 20,000 HFF1 cells/mL were inoculated in 5 mL DMEM supplemented with 10% FBS in a 175 cm^2 flask (Corning; Corning, NY, USA;) and cultivated at 37 °C and 5% CO2 for 24 h for adherence. Afterwards, the medium was changed to DMEM supplemented with 2% FBS and the cells were infected with 10 × 10^6 epimastigotes previously collected and washed with 10 mL DMEM without FBS. The cells were incubated for 48 h at 37 °C and 5% CO2 and later washed every 24 h with DMEM with 2%FBS until trypomastigotes liberation (5–7 days post infection).
For the secondary infection, LLC-MK2 cells (epithelial cells from the kidney of an adult monkey) were infected in a similar fashion to the primary infection, but using 1 × 10^6 trypomastigotes obtained from the primary infection. The released trypomastigotes were used immediately for drug treatment.
The number of mobile trypomastigotes (motility as parameter of viability) was determined using a Neubauer chamber. Data were processed as above.

[3] = tested on: HFF1 human foreskin fibroblasts; assay: Viability of human foreskin fibroblasts (trypan blue exclusion); conditions: for HFF1 LD50: human
Protocol: To evaluate the effect on cell viability, HFF1 cells cultured and washed as above were dispensed in a 96 well plate to a concentration of 1 × 10^4 cells/well in 0.2 mL and incubated for 24 h at 37 °C for adherence. […] To determine viability, cells were detached by trypsinization and then collected, and viability was determined by trypan blue exclusion.

[4] = 120 h, epimastigote growth, 5 days, single initial pulse of compound
[5] = epimastigote relative growth, 24 h treatment, 96-well plate
[6] = trypomastigote viability, 3 h treatment

Row | Structure (SMILES) | S.I. LD50/ED50 ([1]; 24 h) | S.I. LD50/ED50 ([1]; 5 days) | IC50 [1, 4] [µM] | IC50 [1, 5] [µM] | LC50 [2, 6] [µM] | HFF1 LD50 ([3]; 24 h) | HFF1 LD50 ([3]; 5 days) | antiparasitic effect, summary in words [1] | LC50 ([2]; 3 h) [µM] | cytotoxicity on HFF1 ([3]; 24 h treatment) | Epi ED50 (initial screening) ([1]; epimastigote growth, 24 h) | cytotoxicity on HFF1 ([3]; 5 days) | concentration at which cytotoxicity started to show ([3]; HFF1, 24 h treatment) [µM]
1 | Nc1nc(N)c2cc(NC(=O)c3ccc([N+](=O)[O-])cc3)ccc2n1 [Compound 4, N-(2,4-Diaminequinazolin-6-yl)-4-nitrobenzamide] | ≥10 | ≥10 | 10 | 10 ± 0.4 | 60 | >100 (6) µM | >100 (2) µM |  |  |  |  |  | 
2 | Nc1nc(N)c2cc(NC(=O)c3ccccc3)ccc2n1 [Compound 1, N-(2,4-Diaminequinazolin-6-yl)benzamide] |  |  | > 100 | > 100 |  | >100 (6) µM | >100 (2) µM | did not showed an effect in parasites nor in cells | > 150 | did not show either cytotoxicity or parasiticidal effects |  |  | 
3 | Nc1nc(N)c2cc(NCc3cccc(O)c3)ccc2n1 [Compound 13] |  |  |  |  |  |  |  |  |  |  | >100 * (2) µM |  | 
4 | Nc1nc(N)c2cc(NC(=O)c3cccc([N+](=O)[O-])c3)ccc2n1 [Compound 3, N-(2,4-Diaminequinazolin-6-yl)-3-nitrobenzamide] | ≥42 | ≥11 | 8.9 | 2.4 ± 0.4 | 50 | >100 (6) µM | >100 (2) µM |  |  |  |  |  | 
5 | Nc1nc(N)c2cc(NCc3cccc(Cl)c3)ccc2n1 [Compound 9] | 11 | ≥12 | 8.1 ± 1.8 | 7.6 ± 2.5 | > 150 | 85 ± 7 (6) µM | >100 (2) µM |  |  |  |  |  | 
6 | CC1CS(=O)(=O)CCN1/N=C/c1ccc([N+](=O)[O-])o1 (stereo not drawn) [Nfx, (E)-N-(3-methyl-1,1-dioxo-1,4-thiazinan-4-yl)-1-(5-nitrofuran-2-yl) methanimine, reference compound] |  |  | 11.8 ± 0.1 | 3.8 ± 1.2 |  |  |  |  |  |  |  |  | 
7 | O=C(Cn1ccnc1[N+](=O)[O-])NCc1ccccc1 [Bnz, N-benzyl-2-(2-nitroimidazol-1-yl) acetamide, reference compound] | 18 | 7 | 17 ± 10 | 9.4 ± 1.3 | 183 | 165 ± 27 (3) µM | 118 ± 14 (3) µM |  |  |  |  | high cytotoxicity | > 50
8 | Nc1nc(N)c2cc(NCc3cc(F)ccc3F)ccc2n1 [Compound 11, N^6-(2,5-Difluorobenzyl)quinazoline-2,4,6-triamine] | ≥7 | ≥3 | 20 ± 2 | 9 ± 1.4 | > 150 | >60 (4) µM | >60 (1) µM |  |  |  |  |  | 
9 | Nc1nc(N)c2cc(NCc3ccccc3Cl)ccc2n1 [Compound 8] | 4 |  | 6.6 ± 0.5 | 2.3 ± 0.5 |  | 8.6 ± 2 (4) µM | 8 (2) µM | highly toxic for parasites and fibroblasts | 59 |  |  |  | 
10 | Nc1nc(N)c2cc(NCc3ccccc3[N+](=O)[O-])ccc2n1 [Compound 6] |  |  |  |  |  |  |  |  |  |  | 143 * (2) µM |  | 
11 | Nc1nc(N)c2cc(NCc3ccccc3OC(F)(F)F)ccc2n1 [Compound 12] |  |  |  |  |  |  |  |  |  |  | 44 ± 3 (3) µM |  | 
12 | Nc1nc(N)c2cc(NC(=O)c3ccccc3[N+](=O)[O-])ccc2n1 [Compound 2, N-(2,4-Diaminequinazolin-6-yl)-2-nitrobenzamide] | ≥5 | ≥6.7 | 15 ± 3 | 19 ± 2 | 95 | >100 (6) µM | >100 (2) µM |  |  |  |  |  | 
13 | Nc1nc(N)c2cc(NCc3ccc(Cl)cc3)ccc2n1 [Compound 10] | 13 | ≥7 | 14 ± 1.2 | 8.9 ± 2 | > 150 | 116 ± 13 (6) µM | >100 (2) µM |  |  |  |  |  | 
14 | COc1cc(CNc2ccc3nc(N)nc(N)c3c2)cc(OC)c1OC [Compound 14, N^6-(3,4,5-Trimethoxybenzyl)quinazoline-2,4,6-triamine] |  |  |  |  |  |  |  |  |  |  | >100 * (2) µM |  | 
15 | Nc1nc(N)c2cc(NCc3ccc([N+](=O)[O-])cc3)ccc2n1 [Compound 7] |  |  |  |  |  |  |  |  |  |  | >100 * (2) µM |  | 
16 | Nc1nc(N)c2cc(NCc3ccccc3)ccc2n1 [Compound 5] | ≥5 |  | 14 ± 2 | 13 ± 3 |  | >60 (4) µM | 26 (2) µM |  | > 150 |  |  |  | 
